Test results: patent US12172976B2, “Delocalized lipophilic cation compounds and methods of use thereof” (The Board of Trustees of the Leland Stanford Junior …, priority 2019, dated 2024)
One block for each compound: values may come before it.

Columns and labels:
[1] = Fluorescence quantum yield against Rhodamine 6G; assay type: physicochemical; conditions: in ethanol, Rhodamine 6G as reference
Method: The quantum yield of compounds (1) through (11) was measured in ethanol using Rhodamine 6G as a reference.
The fluorescence quantum yields of the compounds were determined using the formula (ϕ=ϕs(Fx/Fs) (As/Ax), where ϕ is quantum yield, F is the integrated area under the corrected emission spectrum, and A is the absorbance at the excitation wavelength; the subscripts x and s refer to F16s and the standard, respectively. Rhodamine 6G (OF 95%) in ethanol was used as the standard. All compounds and Rhodamine 6G were dissolved in ethanol in 5 different concentrations with the absorbance lower than 0.1 at 425 nm. The corresponding 5 different fluorescences of the compounds and Rhodamine 6G were excited at 425 nm and the emission spectra from 450 nm to 650 nm were obtained for the following integrated area measurement. All data was analyzed using Origin Pro 9.0 software (OriginLab, Northampton, Massachusetts, USA) to get the compounds' final quantum yield.

[2] = Photostability under continuous excitation; assay type: physicochemical; conditions: 10 μM in water, continuously excited for 50 mins
Method: A 75 W Xenon arc lamp (Hamamatsu, San Jose, California, USA) with 420-470 nm bond pass filter (MF445-45, Thorlabs, Newton, New Jersey, USA) was used as the light source for the F16 derivatives, Rhodamine 6G, and Mitotracker® Green. Analogously, a 540-580 nm bond pass filter (MF559-34, Thorlabs, Newton, New Jersey, USA) was used to excite Mitotracker Red. All the dyes were dissolved in water at a 10 μM concentration in 700 μL micro quartz cuvettes (10 mm, Sigma-Aldrich, St. Louis, MO, USA). They were continuously excited for 50 mins. During this period, the fluorescence intensity was measured every 5 mins at 525 nm (F16s, Rhodamine 6G, Mitotracker Green) or 600 nm (Mitotracker Red). Relative fluorescence intensity change was monitored over time.

[3] = UV absorbance of the compounds; assay type: physicochemical; conditions: 31 μM in water
Method: The absorbance and fluorescence of delocalized lipophilic cation compounds (1) through (11) were measured. UV absorbance of the compounds was recorded on an Agilent 8453 UV spectrophotometer at a concentration of 31 μM in water. Fluorescence was recorded on a Fluoromax-3 spectrafluorometer (Jobin Yvon) at a concentration of 7.8 μM in water.

[4] = system: subcutaneous HCC827 tumor; test: In vivo fluorescent imaging of mice bearing HCC827 tumors; parameters: species or system nude mice; conditions: 15 mg/kg intravenous
Method: In vivo studies on the effect of compound (3) on the tumor growth and body mass of a mouse model were conducted. Female athymic nude mice (nu/nu) from 4-6 weeks old were obtained from Charles River Laboratories (Boston, MA, USA) and kept under sterile conditions. 5×10^6 human lung adenocarcinoma HCC827 cells suspended in 150 μL of PBS were inoculated subcutaneously in the right shoulder of the nude mice. When the tumors reached 3˜5 mm in diameter, the tumor bearing mice were administered i.v. with compound (3) (dissolved in 150 μL PBS, with 2 μL DMSO) at 15 mg/kg on days 1, 3, 5, 7, 9, 11, 13, 15, 17, 19, 21. Correspondingly, untreated tumor-bearing mice serving as controls were administered i.v. with 150 μL 1×PBS pH 7.4 (with 2 μL DMSO) on the same days as the treated mice. Ten mice were used for each group. Length and width of the elliptical tumors were measured by Vernier caliper after every intravenous injection. Modified ellipsoid formula ½ (Length×Width^2) was used to calculate the tumor size. The tumor growth was calculated with the ratio of final volume (FV) minus initial volume (IV) to initial volume (IV). In vivo fluorescent imaging was taken 40 minutes and 2 hours after the injection of compound (3) 15 mg/kg. IVIS spectrum instrument was used. Excitation wavelength was set at 450 nm. Collection wavelength was set at 550 nm, using a 3s acquisition time. […]

bladder cancer T24 cells = test: In vitro cytotoxicity, T24; assay type: cell-based; conditions: Homo sapiens, T-24, 72 h, 3 days
Method: (§1) The cytotoxicity of compounds (1) through (11) was tested in vitro with bladder cancer T24 cells, non-small cell lung cancer (NSCLC) H838 cells, and normal HIN-3T3 cells (FIG. 4). All test cell lines were incubated in 96-well plates overnight at a density of 3000 cells/well. The culture medium was replaced with 200 μL of culture medium, into which the testing compound was dispersed at various concentrations (1.95-500 μM). After incubating for 3 days, the viable cell numbers were checked and directly counted under microscopy (10×). A minimum of 1 mm×1 mm area was counted from each of at least three widely separated regions of cell culture. The cell proliferation rate was calculated by the following formula: cell proliferation rate (%)=(average cell number of sample wells/average cell number of control wells)×100%. The intact culture medium was evaluated as a control.

[5] = system: NSCLC cell lines HCC827, H838, HCC4006, H1693, H2030, H2228, A549, H1437, H1944; test: Cytotoxicity in nine lung cancer cell lines; assay type: cell-based; conditions: all nine NSCLC cell lines
mitochondria = test: Mitochondrial targeting, fluorescence microscopy of stained cells; assay type: cell-based; conditions: NIH-353, H838, and T24 cell lines
Method: The mitochondrial targeting properties of compounds (1) through (11) were tested. 3 μM compounds were added to cells grown in a MatTek glass-bottom culture dishes (Ashland, Massachusetts) for 1 h and washed with PBS (phosphate-buffered saline) three times. After replacement of the medium, cells were imaged using a fluorescent microscope (Zeiss) with a 63× oil or 20× objective lens (excited in the GFP channel).
Mitotracker@ Red (Molecular Probes) and Hoechst (Thermo Scientific) were added to the medium to stain the mitochondria and nuclei, following the manufacturer's procedures. Cells were photographed using a 63× oil or 20× objective lens.

[6] = system: bladder cancer T24 cells, non-small cell lung cancer (NSCLC) H838 cells, normal HIN-3T3 cells; test: In vitro cytotoxicity, anti-tumor activity and selectivity against normal cells; assay type: cell-based; conditions: Homo sapiens, NCI-H838, 72 h, 3 days
Method: as §1

H2228 cell line = test: In vitro cytotoxicity, H2228; assay type: cell-based
H838 cells = test: Dependence of mitochondrial accumulation on mitochondrial membrane potential; assay type: cell-based
Method: To examine whether the mitochondrial membrane potential (ΔΨm) causes the accumulation of delocalized lipophilic cation compounds in mitochondria, H838 cells were preincubated with medium containing high concentrations of K^+ ions (i.e. 137 mM), to depolarize the mitochondrial membrane, or low concentrations of K^+ ions (i.e. 3 mM). Next, 3 μM of compound (3) was added and the cells were incubated for 30 minutes.

[7] = system: human lung adenocarcinoma HCC827 xenograft; test: Tumor growth and body weight in the HCC827 xenograft; assay type: in vivo, nude mice
Method: In vivo studies on the effect of compound (3) on the tumor growth and body mass of a mouse model were conducted. Female athymic nude mice (nu/nu) from 4-6 weeks old were obtained from Charles River Laboratories (Boston, MA, USA) and kept under sterile conditions. 5×10^6 human lung adenocarcinoma HCC827 cells suspended in 150 μL of PBS were inoculated subcutaneously in the right shoulder of the nude mice. When the tumors reached 3˜5 mm in diameter, the tumor bearing mice were administered i.v. with compound (3) (dissolved in 150 μL PBS, with 2 μL DMSO) at 15 mg/kg on days 1, 3, 5, 7, 9, 11, 13, 15, 17, 19, 21. Correspondingly, untreated tumor-bearing mice serving as controls were administered i.v. with 150 μL 1×PBS pH 7.4 (with 2 μL DMSO) on the same days as the treated mice. Ten mice were used for each group. Length and width of the elliptical tumors were measured by Vernier caliper after every intravenous injection. Modified ellipsoid formula ½ (Length×Width^2) was used to calculate the tumor size. The tumor growth was calculated with the ratio of final volume (FV) minus initial volume (IV) to initial volume (IV).

[8] = system: non-small cell lung cancer (NSCLC) H838 cells; test: In vitro cytotoxicity, H838; assay type: cell-based; conditions: Homo sapiens, NCI-H838, 72 h, 3 days
Method: as §1

carcinoma cell = test: Flow cytometry of carcinoma cell growth; assay type: cell-based

Structure (SMILES): C[n+]1ccc(/C=C/c2c[nH]c3c2ccc2ccccc23)cc1 [(2)]
- quantum yield [1]: around 12%
- IC50 [6]: 0.36 to 6.2 µM

Structure (SMILES): Cn1cc(/C=C/c2cc[n+](C)cc2)c2cc(F)ccc21 [(1)]
- quantum yield [1]: around 12%
- photostability [2]: bleached relatively easily

Structure (SMILES): C[n+]1ccc(/C=C/c2c[nH]c3ccc(Br)cc23)cc1 [(5)]
- IC50 [6]: 0.36 to 6.2 µM
- absorption peak / absorption maxima [3]: about 450 nm

Second part, led by results:

- quantum yield [1]: around 20%
- photostability [2]: bleached relatively easily
- absorption peak / absorption maxima [3]: about 450 nm
Structure (SMILES): Cc1ccc2[nH]c(C)c(/C=C/c3cc[n+](C)cc3)c2c1 [(9)]

- tumor to background ratio ([4]; 2 h post injection): ~2
- quantum yield [1]: around 20%
Structure (SMILES): Cc1cc(Br)cc2c(/C=C/c3cc[n+](C)cc3)c[nH]c12 [Compound (3)]
- organ accumulation ([4]; compared with liver, spleen, heart, lung, and brain): Tumor, kidney, bone, stomach, bowel, pancreas and skin accumulated more
- IC50 (bladder cancer T24 cells): 820 nM
- ATCA (antitumor activity) in NSCLC cell lines [5]: impressively high ATCA
- colocalization with MitoTrack (mitochondria): colocalization
- IC50 [6]: 0.36 to 6.2 µM
- anti-cancer cell to anti-normal cell ratio (H2228 cell line; H2228 against 3T3): around 225
- IC50 (H2228 cell line; Homo sapiens, NCI-H2228, H2228 cell line): 48.9 nM
- accumulation in the mitochondria, low K+ (H838 cells; 3 μM, 30 minutes, preincubation with 3 mM K+): more accumulation
- accumulation in the mitochondria, high K+ (H838 cells; 3 μM, 30 minutes, preincubation with 137 mM K+): less accumulation
- mitochondrial staining after addition of FCCP (H838 cells; FCCP added to the cells): immediately decayed and diffused into the cytoplasm
- tumor volume compared to PBS treated group ([7]; 15 mg/kg i.v. on days 1 to 21 every other day, 21 days PI, p=0.0426): decreased dramatically
- bodyweight between control and treated group ([7]; 15 mg/kg i.v., p=0.477): no significant difference
- tumor pathologic section H&E staining ([7]; HCC827 tumor of treated mice): caused tumor inflammatory cell infiltration, fibrous tissue proliferation, and cell apoptosis
- IC50 [8]: 360 nM
- carcinoma cell growth by flow cytometry (carcinoma cell): inhibited carcinoma cell growth in a time-dependent manner

- quantum yield [1]: 49.1%
Structure (SMILES): C[n+]1ccc(/C=C/c2c[nH]c3ccc(C#N)cc23)cc1 [Compound (4)]
- IC50 [6]: 0.36 to 6.2 µM

- quantum yield [1]: around 20%
Structure (SMILES): C[n+]1ccc(/C=C/c2c[nH]c3ccc(F)cc23)cc1 [(7)]

- photostability [2]: bleached relatively easily
Structure (SMILES): C[n+]1ccc(/C=C/c2c(Cl)[nH]c3ccccc23)cc1 [(8)]
